# Experimental data reported in US11890324B2, “Compounds for use in inducing myocardial perfusion recovery” (Epoqe Pharma ApS, priority 2018, dated 2024).
# Several values for one entry are separate records, joined by “and”; a condition that tells them apart may be missing. Identical values can stand only once. Entries after “also recorded” stand apart in the source; their conditions may differ.
# Columns and labels:
# [1] = system: coronary LAD artery segments; test: CGRP-agonist sensibilization: repeated dose-response and artery culture, coronary LAD; assay type: cell-based, rat
# Text: (§8) Artery segments were divided for comparison of the effect of Compound I and CGRP in fresh and cultured artery segments, respectively.
# [2] = system: coronary (left anterior descending artery, LAD) artery segments; test: Vasodilation of isolated precontracted artery segments (wire myograph), coronary artery; assay type: cell-based, rat
# Procedure: (§1) Basilar, mesenteric and coronary arteries were isolated immediately and ring artery segments were stored in ice cold PSS buffer before being mounted on 40 μm stainless steel wires in a Multi Wire Myograph System organ bath (model 610M, Danish Myo Technology A/S, Denmark). Each segment was immersed in 37° C. PSS solution, continuously aerated with 5% CO2/95% O2 to maintain pH 7.4. […] One wire was connected to a micrometer screw enabling adjustments of the distance between the wires. The other wire was connected to a force displacement transducer attached to an analogue-digital converter unit (ADInstruments, Chalgrove, UK).
# (§2) Measurements of vascular tone were recorded using the data acquisition hardware Power Lab unit (ADInstruments). To ensure optimal conditions for maximal force development, each artery segment was carefully stretched to 90% of the internal circumference that the vessel would have under the passive transmural pressure of 100 mm Hg. Following an equilibration period of approximately 20 min, each segment was exposed twice to KPSS to confirm smooth muscle cell viability and the reproducibility of depolarization-induced contractions.
# After 15 min equilibration, a stable precontraction tone (50-80% of the KPSS-induced steady state contraction) was induced in arterial segments by PGF2α (3-10 μM). […]
# Vasodilation is expressed as percentage of the remaining precontraction tone induced by PGF2α. […] Active tension was determined by subtracting the passive tension (resting tension in PSS) from the total tension (during KPSS or PGF2α challenge).
# (§3) All pharmacological data were analysed using Prism 7.02 (GraphPad Software Inc., San Diego, CA) and given as mean±S.E.M. For all analyses, the data were unweighted and each y value (mean of replicates for each individual experiment) was considered an individual point.
# (§4) Differences in pEC50 and Emax values were analysed with paired (animal) t-tests and considered significant as P<0.05.
# CGRP receptor = target: T1, CGRP receptor (Homo sapiens, UniProt O60894+Q16602); details: literature (Sheykhzade 2018; Nilsson 2016); cited from earlier work
# T1 construct: host or cells: naturally occurring cells, recombinant CGRP receptor expressing cell lines, isolated artery segments (none specified)
# T1 sequence (Q16602 23-461): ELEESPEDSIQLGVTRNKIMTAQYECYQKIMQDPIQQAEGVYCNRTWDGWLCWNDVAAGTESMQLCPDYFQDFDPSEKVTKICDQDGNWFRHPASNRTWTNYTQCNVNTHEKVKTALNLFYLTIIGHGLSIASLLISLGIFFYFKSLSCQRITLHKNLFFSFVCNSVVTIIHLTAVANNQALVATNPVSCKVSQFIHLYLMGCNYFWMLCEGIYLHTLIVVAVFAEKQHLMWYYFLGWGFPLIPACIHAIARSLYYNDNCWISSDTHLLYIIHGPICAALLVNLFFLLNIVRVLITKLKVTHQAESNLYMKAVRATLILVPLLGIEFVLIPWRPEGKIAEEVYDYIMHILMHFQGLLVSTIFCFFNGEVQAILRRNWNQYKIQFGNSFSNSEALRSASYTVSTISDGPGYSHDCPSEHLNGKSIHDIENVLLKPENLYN
# T1 sequence (O60894 27-148): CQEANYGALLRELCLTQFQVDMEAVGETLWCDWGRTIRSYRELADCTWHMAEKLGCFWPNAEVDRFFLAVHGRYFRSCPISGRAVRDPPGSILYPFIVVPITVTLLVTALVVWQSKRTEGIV
# [3] = system: mesenteric artery segments; test: CGRP-agonist sensibilization: repeated dose-response and artery culture, mesenteric artery; assay type: cell-based, rat; details: isolated mesenteric artery
# Text: as §8
# [4] = system: hypertension in experimental animals; details: cited from earlier work
# [5] = system: rats with acute myocardial infarction (permanent LAD occlusion); test: Rat model of acute myocardial infarction (permanent LAD occlusion), myocardial perfusion imaging by SPECT/CT
# Procedure: Experimental myocardial infarction is induced by LAD ligation in rats. Size of the acute myocardial perfusion defect is determined by myocardial perfusion imaging using SPECT/CT. […] All surviving rats underwent follow-up myocardial perfusion imaging using SPECT/CT 21 days after the infarct to determine the final infarct size.
# AMI surgery was conducted using the procedure for permanent LAD occlusion.
# The rats were anaesthetized with 4% sevoflurane. Rats were intubated and ventilated (UNO micor-ventilator-O3, Netherlands) and maintained anaesthetized with sevuflorane 2.5% to 4%. Rats were placed on a heated surface during surgery. In the rat's tail vein a 24G intravenous catheter was placed (Vasofix® Safety, Braun, Denmark). Before incision the rats were pain treated subcutaneously with Buprenorphine 0.05 mg/kg. After surgery the rats were paintreated four times the first 24 hours and three times the next 24-72 hours.
# After insuring sterile surgical conditions, an incision was made in the skin and a thoracotomy was performed. This was placed at either the third or fourth intercostal space depending on size. The pericardium was identified and opened. After inspection of the heart, the LAD was identified and ligated caudal of its origin with a 5-0 polypropylene suture. The myocardium was visually observed for ischemia. If there was no discoloration of the myocardium, another suture was made until ischemia was confirmed by discoloration of the myocardium. One minute after ligation, the rats were injected intravenously with 99-technetium sestamibi to determine the acute perfusion defect. After injection of sestamibi, suture type vicryl 4-0 was used to close the thoracotomy, muscle layer and skin.
# Rats underwent single photon emission computer tomography (SPECT) on the day of the surgery and 21 days post-surgery to determine acute and final perfusion defect size. Imaging was performed on a preclinical SPECT/CT scanner (Mediso Nanoscan, Hungary). The rats were anesthetized with sevuflorane 4% for SPECT-scan to be obtained. On the day of the surgery, the rats were perioperatively injected with 99-technetium Sestamibi (median 106 mBq [99; 116]) as described above. On the 21-days follow-up the rats were anesthetized with sevoflurane 4%. In the rat's tail vein an 24G intravenous catheter was placed (Vasofix® Safety, Braun, Denmark). After the catheter was placed, the rats were injected with 99-tecnetium (median 122 [106; 129]).
# [6] = system: peripheral (mesenteric) artery segments; test: Vasodilation of isolated precontracted artery segments (wire myograph), mesenteric artery; assay type: cell-based, rat
# Procedure: as §1, §2
# (§5) After 15 min equilibration, a stable precontraction tone (50-80% of the KPSS-induced steady state contraction) was induced in arterial segments by PGF2α (3-10 μM).
# (§6) Concentration-dependent vasodilatory responses of artery segments were normalized as percentage of precontraction remaining.
# (§7) Vasodilation is expressed as percentage of the remaining precontraction tone induced by PGF2α. Vessel wall tension=Force/(vessel wall length), where vessel wall length=2×segment length. Active tension was determined by subtracting the passive tension (resting tension in PSS) from the total tension (during KPSS or PGF2α challenge).
# as §3, §4
# [7] = system: cerebral (basilar) artery segments; test: Vasodilation of isolated precontracted artery segments (wire myograph), basilar artery; assay type: cell-based, rat
# Procedure: as §1, §2, §5, §6, §7, §3, §4
# [8] = all completers, 21 days after infarct, mean ± SEM
# [9] = subgroup with acute perfusion defect < 15%, 21 days, mean ± SEM
substance,measurement,setting,value
N-alpha-[2-(2-{2-[(S)-4-Carboxy-4-(17-carboxyheptadecanoylamino)-butyrylamino]-ethoxy}ethoxy)acetyl](Ser1]alpha-human CGRP peptide [Compound I],Effect of repeated cumulative stimulation on potency ratio Compound I/CGRP (in words),[1],does not change the potency ratio
same,Effect of artery culture on CGRP-agonist-induced vasodilation (in words),[1]; culture 24 h at 37° C. in absence and presence of 10 nM Compound I,induce sensibilization
same,Effect of repeated cumulative stimulation on potency (in words),[1]; second dose-response curve 90-120 minutes after the first,shift in potency towards significant sensitization
same,Vasodilation efficacy compared with CGRP (in words),[2]; coronary artery,comparable efficacy; also recorded: not different
same,Potency ratio (EC50 CGRP: EC50 Compound 1),[2]; coronary artery segments,~1
same,Vasodilatory potency compared with CGRP (in words),[2]; coronary artery segments,equipotent; also recorded: similar; also recorded: not different
same,In vitro potency lower than that of CGRP,CGRP receptor,approximately 10 times
same,Potency ratio between Compound I and CGRP after repeated dose-response (in words),[3],maintained
same,CGRP-agonist-induced CGRP sensibilization (in words),[3]; repeated dose-response and culture,no CGRP-agonist-induced CGRP sensibilization
same,Effect on hypertension (in words),[4],reversing hypertension and complications of hypertension
same,"Perfusion recovery, %",[5]; [8],55.1±6.6% and 55.1 ± 6.4%
same,"Perfusion recovery, SRS",[5]; [8],6.5 ± 1 SRS
same,Animals surviving the surgery and the 3 weeks recovery period (survival rate),"[5]; rat, in vivo",75%
same,Effect on survival rate (in words),"[5]; rat, in vivo",tendency (not statistically significant) towards an increased survival rate
same,Further rats that died during the 21-days follow-up period,"[5]; rat, in vivo",14%
same,"Perfusion recovery in subgroup, %",[5]; [9],66.2 ± 9.0%
same,"Perfusion recovery in subgroup, SRS",[5]; [9],3.8 ± 0.6 SRS
same,Effect on myocardial perfusion recovery (in words),"[5]; treatment for 3 successive days after experimental AMI, 3 weeks",large improvement of myocardial perfusion recovery; also recorded: significant improved recovery of perfusion defect
same,Potency difference between CGRP and Compound I,[6]; mesenteric artery,5-10 fold
same,Potency ratio (EC50 CGRP: EC50 Compound 1),[6]; mesenteric artery,0.1-0.2
same,Vasodilation efficacy compared with CGRP (in words),[6]; mesenteric artery,comparable efficacy
same,Vasodilatory potency compared with CGRP (in words),[6]; mesenteric artery,lower
same,Potency in peripheral compared with coronary artery (in words),[6]; peripheral (mesenteric) versus coronary artery,not lower
same,Vasodilation efficacy compared with CGRP (in words),[7]; basilar artery,comparable efficacy
same,Vasodilatory potency compared with CGRP (in words),[7]; basilar artery,lower
same,Potency difference between CGRP and Compound I,[7]; cerebral artery,5-10 fold
same,Potency ratio (EC50 CGRP: EC50 Compound 1),[7]; cerebral artery,0.1-0.2
N-alpha-[2-(2-{2-[(S)-4-Carboxy-4-(17-carboxyheptadecanoylamino)butyryl-amino]ethoxy}ethoxy)acetyl](Ser1]beta-human CGRP peptide [Compound II],In vitro potency lower than that of CGRP,CGRP receptor,approximately 10 times
